In ChEMBL document CHEMBL1133711 (J Med Chem, 2000):

molecular target: T1, 5-hydroxytryptamine receptor 3A (Homo sapiens, UniProt P46098); assay: Compound was evaluated for its binding affinity towards 5-hydroxytryptamine 3 receptor
T1 sequence (P46098 whole entry): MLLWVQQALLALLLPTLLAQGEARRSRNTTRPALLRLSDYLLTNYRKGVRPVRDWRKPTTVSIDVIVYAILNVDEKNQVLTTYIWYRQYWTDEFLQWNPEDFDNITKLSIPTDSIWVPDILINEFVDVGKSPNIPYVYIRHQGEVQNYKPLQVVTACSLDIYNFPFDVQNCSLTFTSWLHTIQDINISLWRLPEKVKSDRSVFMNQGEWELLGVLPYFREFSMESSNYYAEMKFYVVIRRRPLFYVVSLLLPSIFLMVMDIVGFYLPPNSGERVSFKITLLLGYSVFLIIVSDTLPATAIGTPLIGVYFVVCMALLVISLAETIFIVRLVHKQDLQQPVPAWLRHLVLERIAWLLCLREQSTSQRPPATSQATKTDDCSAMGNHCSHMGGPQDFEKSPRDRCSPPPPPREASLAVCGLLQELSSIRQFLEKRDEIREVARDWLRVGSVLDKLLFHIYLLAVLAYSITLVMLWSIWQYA

Q: For `Cc1[nH]c2ccc(O)cc2c1CCN`, which Ki is on record?
A: 1200 nM

Q: For `COc1ccc2[nH]c(C)c(CCN)c2c1`, which Ki is on record?
A: > 10000 nM

molecular target: 5-hydroxytryptamine receptor 6 (Homo sapiens, UniProt P50406); assay: Binding affinity for human 5-hydroxytryptamine 6 receptor expressed in HEK 293 human embryonic kidney cells, [3H]-lysergic acid diethylamide as radioligand; assay type: cell-based, HEK293
Sequence (P50406 whole entry): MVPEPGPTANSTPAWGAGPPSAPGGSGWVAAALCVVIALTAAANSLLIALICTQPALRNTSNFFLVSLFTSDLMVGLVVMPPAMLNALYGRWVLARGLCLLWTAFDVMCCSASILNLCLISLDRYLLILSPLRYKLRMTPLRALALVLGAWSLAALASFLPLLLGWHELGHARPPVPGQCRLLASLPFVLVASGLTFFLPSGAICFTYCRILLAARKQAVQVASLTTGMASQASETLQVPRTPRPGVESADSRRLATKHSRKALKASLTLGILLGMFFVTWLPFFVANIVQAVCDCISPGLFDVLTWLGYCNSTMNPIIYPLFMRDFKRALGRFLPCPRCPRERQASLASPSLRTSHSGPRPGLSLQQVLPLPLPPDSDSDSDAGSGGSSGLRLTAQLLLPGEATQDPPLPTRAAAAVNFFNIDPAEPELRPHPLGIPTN

Q: Which Ki does the source give for `Cc1[nH]c2ccc(O)cc2c1CCN` here?
A: 46 nM

Q: `CCc1[nH]c2ccc(OC)cc2c1CCN(C)C` was tested. Which Ki did it give?
A: 52 nM

Q: `COc1ccc2[nH]c(C)c(CCN)c2c1` was tested. Which Ki did it give?
A: 98 nM

Q: How did the Ki turn out when `COc1ccc2[nH]c(C)c(CCN(C)C)c2c1` was run?
A: 80 nM

Q: Which Ki does the source give for `CCn1cc(CCN(C)C)c2cc(OC)ccc21` here?
A: 240 nM

Q: Which Ki does the source give for `COc1ccc2c(c1)c(CCN(C)C)cn2C(C)C` here?
A: 130 nM

Q: With `COc1ccc2c(c1)c(CCN(C)C)cn2C` as the compound, how does the Ki read?
A: 510 nM

Q: Which Ki does the source give for `COc1ccc2[nH]c(-c3ccccc3)c(CCN(C)C)c2c1` here?
A: 54 nM

Q: With `Cc1[nH]c2ccccc2c1CCN(C)C` as the compound, how does the Ki read?
A: 300 nM

Q: Which Ki does the source give for `CCCn1cc(CCN(C)C)c2cc(OC)ccc21` here?
A: 200 nM
